pIC50: −log10 of the molar value. The source made the active and inactive calls. No cut-off for these calls is given here.
Key:
SK-OV-3 [1] = experiment: Antitumor activity against human SK-OV-3 cells assessed as reduction in cell viability incubated for 72 hrs by CCK8 assay; format: functional, cell-based; settings: SK-OV-3, 72 h
MDA-MB-231 = experiment: Antitumor activity against human MDA-MB-231 cells assessed as reduction in cell viability incubated for 72 hrs by CCK8 assay; settings: MDA-MB-231, 72 h
MCF7 = experiment: Antitumor activity against human MCF7 cells assessed as reduction in cell viability incubated for 72 hrs by CCK8 assay; format: functional, cell-based; settings: MCF7, 72 h
A549 = experiment: Antitumor activity against human A549 cells assessed as reduction in cell viability incubated for 72 hrs by CCK8 assay; format: functional, cell-based; settings: A549, 72 h
Tubulin (Homo sapiens) [2] = target: T1, Tubulin (Homo sapiens) (UniProt P68371+Q9H4B7+P0DPH7+P68366+Q13509+Q71U36+P04350+Q3ZCM7+P07437+P68363+Q9BQE3+Q6PEY2+Q13885+Q9BVA1+Q9BUF5); experiment: Inhibition of tubulin polymerization (unknown origin) assessed as increase in optical density at 340 nm at 10 uM; format: protein-complex assay
Tubulin (Homo sapiens) [3] = target: T1, Tubulin (Homo sapiens); experiment: Inhibition of tubulin polymerization in human SK-OV-3 cells at 20 nM incubated for 18 hrs by Alexa Fluor 488 staining based confocal immunofluorescent microscopic analysis; format: cell-based
SK-OV-3 [4] = experiment: Antitumor activity against human SK-OV-3 cells xenografted in female BALB/c nude mouse assessed as tumor growth inhibition at 10 mg/kg, […] via tail vein once every 2 to 3 days; format: functional; settings: time 2-3 day, read-out: TGI

pIC50 (SK-OV-3 [1])	pIC50 (MDA-MB-231)	pIC50 (MCF7)	pIC50 (A549)	inhibition (Tubulin (Homo sapiens) [2])	Compound	inhibition (Tubulin (Homo sapiens) [3])	inhibition in vivo at 10 mg/kg (SK-OV-3 [4]) [%]
< 6.00	< 6.00	< 6.00	< 6.00	–	COc1ccc2c(c1)CCCN2c1nc(-c2cc(OC)c(OC)c(OC)c2)nc2ccc(F)cc12	–	–
7.40	7.61	7.43	7.17	–	COc1ccc2c(c1)CCCN2c1nc(Cl)nc2ccc(Cl)cc12	–	–
7.50	7.24	7.22	7.27	–	COc1ccc2c(c1)CCCN2c1nc(N2CCOCC2)nc2ccc(F)cc12	–	–
< 6.00	< 6.00	< 6.00	< 6.00	–	COc1ccc2c(c1)CCCN2c1nc(N2CCCC2)nc2ccc(F)cc12	–	–
8.36	8.15	8.22	8.14	–	COc1ccc2c(c1)CCCN2c1nc(N)nc2ccc(F)cc12	–	–
8.17	7.59	7.93	7.71	–	CCCNc1nc(N2CCCc3cc(OC)ccc32)c2cc(F)ccc2n1	–	–
6.33	6.05	6.15	< 6.00	–	CCN(CC)c1nc(N2CCCc3cc(OC)ccc32)c2cc(F)ccc2n1	–	–
8.82	7.94	8.62	8.12	–	COc1ccc2c(c1)CCCN2c1nc(NC2CC2)nc2ccc(F)cc12	–	–
6.80	6.49	6.26	6.50	–	COc1ccc2c(c1)CCCN2c1nc(Cl)nc2ccc(I)cc12	–	–
< 6.00	< 6.00	< 6.00	< 6.00	–	COc1ccc2c(c1)CCCN2c1nc(NCCN(C)C)nc2ccc(F)cc12	–	–
< 6.00	< 6.00	< 6.00	< 6.00	–	COc1ccc2c(c1)CCCN2c1nc(NCc2ccccc2)nc2ccc(F)cc12	–	–
< 6.00	< 6.00	< 6.00	< 6.00	–	COc1ccc2c(c1)CCCN2c1nc(Cl)nc2ccc(OC(F)(F)F)cc12	–	–
< 6.00	< 6.00	< 6.00	< 6.00	–	COc1ccc(-c2nc(N3CCCc4cc(OC)ccc43)c3cc(F)ccc3n2)cc1	–	–
7.72	7.40	7.55	7.48	–	COCCCNc1nc(N2CCCc3cc(OC)ccc32)c2cc(F)ccc2n1	–	–
7.42	7.43	7.34	7.53	–	COc1ccc2c(c1)CCCN2c1nc(Cl)nc2ccc(C)cc12	–	–
8.47	7.80	7.75	7.64	–	COCCNc1nc(N2CCCc3cc(OC)ccc32)c2cc(F)ccc2n1	–	–
8.31	8.09	8.42	8.02	–	CCNc1nc(N2CCCc3cc(OC)ccc32)c2cc(F)ccc2n1	–	–
< 6.00	< 6.00	< 6.00	< 6.00	–	COc1ccc(Nc2nc(N3CCCc4cc(OC)ccc43)c3cc(F)ccc3n2)cc1	–	–

pIC50 (SK-OV-3 [1])	pIC50 (MDA-MB-231)	pIC50 (MCF7)	pIC50 (A549)	inhibition (Tubulin (Homo sapiens) [2])	Compound	inhibition (Tubulin (Homo sapiens) [3])	inhibition in vivo at 10 mg/kg (SK-OV-3 [4]) [%]
< 6.00	< 6.00	< 6.00	< 6.00	–	COc1ccc2c(c1)CCCN2c1nc(N2CCN(C)CC2)nc2ccc(F)cc12	–	–
7.65	7.44	7.61	7.53	–	COc1ccc2c(c1)CCCN2c1nc(Cl)nc2ccc(F)cc12	–	–
7.16	6.86	6.72	7.04	–	COc1ccc2c(c1)CCCN2c1nc(NCCOCCOCCO)nc2ccc(F)cc12	–	–
7.59	7.21	7.33	7.16	–	CCCCNc1nc(N2CCCc3cc(OC)ccc32)c2cc(F)ccc2n1	–	–
< 6.00	< 6.00	< 6.00	< 6.00	–	COc1ccc2c(c1)CCCN2c1nc(Cl)nc2ccc(C(F)(F)F)cc12	–	–
7.65	7.60	7.82	7.34	–	COc1ccc2c(c1)CCCN2c1nc(NC(C)C)nc2ccc(F)cc12	–	–
7.94	–	7.51	8.77	Active	CC(=O)O[C@H]1C(=O)[C@@]2(C)[C@H]([C@H](OC(=O)c3ccccc3)[C@]3(O)C[C@H](OC(=O)[C@H](O)[C@@H](NC(=O)c4ccccc4)c4ccccc4)C(C)=C1C3(C)C)[C@]1(OC(C)=O)CO[C@@H]1C[C@@H]2O [PACLITAXEL]	Not active; Aggregated Into Bundle Like Filamentary Structure	39.1
7.20	7.18	7.17	7.82	–	COc1ccc2c(c1)CCCN2c1nc(Cl)nc2ccc(Br)cc12	–	–
7.24	7.19	7.18	7.48	–	COc1ccc2c(c1)CCCN2c1nc(Cl)nc2ccc(OC)cc12	–	–
< 6.00	< 6.00	< 6.00	< 6.00	–	COc1ccc2c(c1)CCCN2c1nc(NC2CCCCC2)nc2ccc(F)cc12	–	–
6.80	6.48	6.26	6.36	–	COc1ccc2c(c1)CCCN2c1nc(NCC(C)C)nc2ccc(F)cc12	–	–
< 6.00	< 6.00	< 6.00	< 6.00	–	COc1ccc2c(c1)CCCN2c1nc(N2CCCCC2)nc2ccc(F)cc12	–	–
< 6.00	< 6.00	< 6.00	< 6.00	–	COc1ccc2c(c1)CCCN2c1nc(NC2CCCC2)nc2ccc(F)cc12	–	–
< 6.00	< 6.00	< 6.00	< 6.00	–	COc1ccc2c(c1)CCCN2c1nc(NC(C)(C)C)nc2ccc(F)cc12	–	–
7.50	7.44	7.62	7.29	–	COc1ccc2c(c1)CCCN2c1nc(NC2CCC2)nc2ccc(F)cc12	–	–
8.24	8.03	8.22	7.90	–	COc1ccc2c(c1)CCCN2c1nc(NCCCO)nc2ccc(F)cc12	–	–
7.35	7.34	7.45	7.19	–	COc1ccc2c(c1)CCCN2c1nc(N(C)C)nc2ccc(F)cc12	–	–

Compound	pIC50 (SK-OV-3 [1])	pIC50 (MDA-MB-231)	pIC50 (MCF7)	pIC50 (A549)	inhibition (Tubulin (Homo sapiens) [2])	inhibition (Tubulin (Homo sapiens) [3])	inhibition in vivo at 10 mg/kg (SK-OV-3 [4]) [%]
COc1cc2c(c(OC)c1OC)-c1ccc(OC)c(=O)cc1[C@@H](NC(C)=O)CC2 [COLCHICINE]	8.20	7.92	–	7.50	–	–	–

Reference: ChEMBL document CHEMBL6074686 (Eur J Med Chem, 2025)
